Laboratory results published in US9499509B2, “Dihydrochalcone derivatives and their use as antibiotic agents” (UNIVERSITÉ DU QUÉBEC À CHICOUTIMI, priority 2012, dated 2016).
Like-named read-outs stand apart in the source and are kept apart here.

Assays:
[1] = system: methicillin-resistant Staphylococcus aureus (MRSA) strains; assay: Antibiotic assay (resazurin, Example 1), MRSA strains; format: cell-based; conditions: for IC50: read-out: IC50
Outline: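 Ten MRSA strains isolated from screening swabs (nares, throat, groin pus) of patients at Chicoutimi hospital were tested, with S. aureus wild-type strain ATCC25923 run alongside. Isolates were identified using the Slidex Staph-Kit and API Staph strips. Methicillin resistance was confirmed by PBP2a latex agglutination and by a Kirby-Bauer disk diffusion antibiogram on Muller-Hinton agar at 37° C.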

[2] = system: S. aureus wild type strain (ATCC 25923); assay: Antibiotic assay (resazurin, Example 1), S. aureus wild type; format: cell-based, Staphylococcus aureus
Procedure: (§1) Bacteria Strain. […] The MRSA were obtained as further described below.
(§2) Antibiotic agents. Cyprofloxacin and erythromycin were provided by Sigma-Aldrich. Gentamicin sulfate and vancomycin hydrochloride were provided by Calbiochem.
MRSA. Ten (10) strains of MRSA obtained as described above were tested along with an S. aureus wild type (WT) strain (ATCC25923).

Streptococcus pneumoniae = assay: Antibiotic assay (resazurin, Example 1), Streptococcus pneumoniae; format: cell-based; conditions: for IC50: read-out: IC50
Procedure: as §1, §2
(§3) Five additional strains were tested: Streptococcus pneumoniae, Streptococcus agalactiae, Streptococcus pyogenes, Enterococcus faecalis and Corynebacterium jeikeium.

Enterococcus faecalis = assay: Antibiotic assay (resazurin, Example 1), Enterococcus faecalis; format: cell-based; conditions: for IC50: read-out: IC50; for activity against Enterococcus faecalis: in words
Procedure: as §1, §2, §3

Corynebacterium jeikeium = assay: Antibiotic assay (resazurin, Example 1), Corynebacterium jeikeium; format: cell-based; conditions: Coryne. jeikeium 14139
Procedure: as §1, §2, §3

Streptococcus pyogenes = assay: Antibiotic assay (resazurin, Example 1), Streptococcus pyogenes; format: cell-based; conditions: for IC50: read-out: IC50; for activity against Streptococcus pyogenes strain 14152: in words
Procedure: as §1, §2, §3

Streptococcus agalactiae = assay: Antibiotic assay (resazurin, Example 1), Streptococcus agalactiae; format: cell-based; conditions: for IC50: read-out: IC50; for activity against Streptococcus agalactiae strain 14150: in words
Procedure: as §1, §2, §3

WS-1 cell lines = assay: Cytotoxicity assay on WS-1 (Example 1)
Procedure: Cytotoxicity assay. The cytotoxicity assay was performed in 96-well plates (BD Falcon). The WS-1 cell lines were provided by ATCC. The WS-1 was cultured in DMEM+10% fetal calf serum. The cells were plated in a volume of 100 μL at a density of 5000 cells per well and incubated at 37° C.+5% CO2 for 24 h to promote cell adhesion.
The plates were incubated at 37° C.+5% CO2 for 48 h. The cells were then washed with 100 μL of HBSS and 150 μL of a 2% resazurin were added to the wells.
The therapeutic index is the ratio between the toxicity on normal cells, in this case fibroblast, and the toxicity on bacteria.

S. epidermidis = assay: Antibiotic assay (resazurin, Example 1), S. epidermidis strains; conditions: for activity on S. epidermidis compared with ciprofloxacin: in words
Procedure: The antibiotic assays were performed in 96-well plates (BD Falcon). The bacteria strains were inoculated in Nutrient Broth (BD) for the gram negative bacteria and Tryptic soy broth (BD) with 10% of defibrinated sheep blood (PML microbiological) for gram positive strain. All bacteria strains were dosed by spectrophotometry at 660 nm where 1 D.O=2×10^8 bacteria/mL. All bacteria were plated in their respective broth at a concentration of 450 000 bacteria/mL.
Compounds I, II and III were diluted in methanol and the above-noted antibiotic agents were diluted in water. The solvent concentration was 0.25%, which was not toxic for the bacteria. Compounds I, II and III and the above-noted antibiotic agents were tested at 8 different concentrations.
Each well contained: 100 μL of bacteria, 50 μL of the compounds tested (compound I, II, III or the above-noted antibiotic agent) and 50 μL of a 4% resazurin (Sigma) solution. The plates were incubated at 37° C. for 5 h. The fluorescence was read using a Fluoroskan Ascent™ FL (thermo) using an excitation wavelength of 530 nm and an emission wavelength of 590 nm.
Two different strains of Staphylococcus were tested, namely the S. epidermidis and the S. aureus strains.

[3] = S. aureus WT (ATCC 25923), read-out: IC50
[4] = Table 5, same values as IC50 of Table 2, read-out: S. aureus WT ATCC 25923 (toxicity on bacteria)

COc1ccc(CCC(=O)c2c(O)cc(O)c(C/C=C/c3ccc(O)cc3)c2O)cc1 [Compound II]
Minimum Inhibitory Concentration (MIC) ([1]; MRSA 1): (5.34) μM
IC50 ([1]; MRSA 1): 2.5 ± 0.2 µM
Minimum Inhibitory Concentration (MIC) ([1]; MRSA 2): (5.57) μM
IC50 ([1]; MRSA 2): 2.6 ± 0.2 µM
Minimum Inhibitory Concentration (MIC) ([1]; MRSA 3): (5.29) μM
IC50 ([1]; MRSA 3): 2.6 ± 0.2 µM
Minimum Inhibitory Concentration (MIC) ([1]; MRSA 4): (4.61) μM
IC50 ([1]; MRSA 4): 2.4 ± 0.1 µM
Minimum Inhibitory Concentration (MIC) ([1]; MRSA 5): (4.86) μM
IC50 ([1]; MRSA 5): 2.3 ± 0.4 µM
Minimum Inhibitory Concentration (MIC) ([1]; MRSA 6): (5.22) μM
IC50 ([1]; MRSA 6): 2.3 ± 0.2 µM
Minimum Inhibitory Concentration (MIC) ([1]; MRSA 7): (4.34) μM
IC50 ([1]; MRSA 7): 2.5 ± 0.2 µM
Minimum Inhibitory Concentration (MIC) ([1]; MRSA 8): (4.84) μM
IC50 ([1]; MRSA 8): 2.3 ± 0.2 µM
Minimum Inhibitory Concentration (MIC) ([1]; MRSA 9): (5.26) μM
IC50 ([1]; MRSA 9): 2.5 ± 0.2 µM
Minimum Inhibitory Concentration (MIC) ([1]; MRSA 10): (5.07) μM
IC50 ([1]; MRSA 10): 3.2 ± 0.2 µM
Minimum Inhibitory Concentration (MIC) ([2]; S. aureus WT (ATCC 25923)): (6.47) μM
IC50 [2, 3]: 2.7 ± 0.7 µM
IC50 [2, 4]: 2.7 ± 0.7 µM
Minimum Inhibitory Concentration (MIC) (Streptococcus pneumoniae; Strep. pneumoniae 14070): (122) μM
IC50 (Streptococcus pneumoniae; Strep. pneumoniae 14070): 54 ± 4 µM
Minimum Inhibitory Concentration (MIC) (Streptococcus pneumoniae; Strep. pneumoniae 14112): (169) μM
IC50 (Streptococcus pneumoniae; Strep. pneumoniae 14112): 74 ± 6 µM
Minimum Inhibitory Concentration (MIC) (Streptococcus pneumoniae; Strep. pneumoniae 14138): (>200) μM
IC50 (Streptococcus pneumoniae; Strep. pneumoniae 14138): > 200 µM
Minimum Inhibitory Concentration (MIC) (Streptococcus pneumoniae; Strep. pneumoniae 14144): (>200) μM
IC50 (Streptococcus pneumoniae; Strep. pneumoniae 14144): > 200 µM
Minimum Inhibitory Concentration (MIC) (Streptococcus pneumoniae; Strep. pneumoniae 14148): (200) μM
IC50 (Streptococcus pneumoniae; Strep. pneumoniae 14148): 83 ± 7 µM
activity against Streptococcus pneumoniae 14070 strain (Streptococcus pneumoniae; in words): active
activity against Streptococcus pneumoniae strain 14144 (Streptococcus pneumoniae; in words): not active
Minimum Inhibitory Concentration (MIC) (Enterococcus faecalis; Ent. Faecalis 14078): (>200) μM
IC50 (Enterococcus faecalis; Ent. Faecalis 14078): > 200 µM
Minimum Inhibitory Concentration (MIC) (Enterococcus faecalis; Ent. Faecalis 14115): (>200) μM
IC50 (Enterococcus faecalis; Ent. Faecalis 14115): > 200 µM
activity against Enterococcus faecalis (Enterococcus faecalis): No activity
Minimum Inhibitory Concentration (MIC) (Corynebacterium jeikeium): (112) μM
Minimum Inhibitory Concentration (MIC) (Streptococcus pyogenes; Strep. pyogenes 14149): (>200) μM
IC50 (Streptococcus pyogenes; Strep. pyogenes 14149): > 200 µM
Minimum Inhibitory Concentration (MIC) (Streptococcus pyogenes; Strep. pyogenes 14152): (>200) μM
IC50 (Streptococcus pyogenes; Strep. pyogenes 14152): 90 ± 7 µM
activity against Streptococcus pyogenes strain 14152 (Streptococcus pyogenes): active
Minimum Inhibitory Concentration (MIC) (Streptococcus agalactiae; Strep. agalactiae 14150): (>200) μM
IC50 (Streptococcus agalactiae; Strep. agalactiae 14150): 169 ± 3 µM
Minimum Inhibitory Concentration (MIC) (Streptococcus agalactiae; Strep. agalactiae 14151): (>200) μM
IC50 (Streptococcus agalactiae; Strep. agalactiae 14151): > 200 µM
Minimum Inhibitory Concentration (MIC) (Streptococcus agalactiae; Strep. agalactiae 14153): (>200) μM
IC50 (Streptococcus agalactiae; Strep. agalactiae 14153): > 200 µM
activity against Streptococcus agalactiae strain 14150 (Streptococcus agalactiae): active
WS-1 (toxicity on normal cells, fibroblast) (WS-1 cell lines; Table 5, WS-1, 48 h): 27 ± 4
IC50 (S. epidermidis; S. epidermidis 14069): 5 ± 0.3 µM
Minimum Inhibitory Concentration (MIC) (S. epidermidis; S. epidermidis 14069): (12.7) μM
IC50 (S. epidermidis; S. epidermidis 14085): 4.4 ± 0.3 µM
Minimum Inhibitory Concentration (MIC) (S. epidermidis; S. epidermidis 14085): (14.3) μM
IC50 (S. epidermidis; S. epidermidis 14093): 7 ± 0.3 µM
Minimum Inhibitory Concentration (MIC) (S. epidermidis; S. epidermidis 14093): (11.2) μM
IC50 (S. epidermidis; S. epidermidis 14134): 3.8 ± 0.6 µM
Minimum Inhibitory Concentration (MIC) (S. epidermidis; S. epidermidis 14134): (13.5) μM
IC50 (S. epidermidis; S. epidermidis 14143): 5.8 ± 0.2 µM
Minimum Inhibitory Concentration (MIC) (S. epidermidis; S. epidermidis 14143): (10.9) μM
activity on S. epidermidis compared with ciprofloxacin (S. epidermidis): more active than ciprofloxacin

COc1cc(O)c(C(=O)CCc2ccc(O)cc2)c(O)c1C/C=C/c1ccc(O)cc1 [Compound I]
Minimum Inhibitory Concentration (MIC) ([1]; MRSA 1): (5.11) μM
IC50 ([1]; MRSA 1): 2.2 ± 0.2 µM
Minimum Inhibitory Concentration (MIC) ([1]; MRSA 2): (5.22) μM
IC50 ([1]; MRSA 2): 2.2 ± 0.2 µM
Minimum Inhibitory Concentration (MIC) ([1]; MRSA 3): (5.54) μM
IC50 ([1]; MRSA 3): 2.1 ± 0.2 µM
Minimum Inhibitory Concentration (MIC) ([1]; MRSA 4): (4.82) μM
IC50 ([1]; MRSA 4): 2.1 ± 0.2 µM
Minimum Inhibitory Concentration (MIC) ([1]; MRSA 5): (5.07) μM
IC50 ([1]; MRSA 5): 1.7 ± 0.2 µM
Minimum Inhibitory Concentration (MIC) ([1]; MRSA 6): (5.01) μM
IC50 ([1]; MRSA 6): 2 ± 0.2 µM
Minimum Inhibitory Concentration (MIC) ([1]; MRSA 7): (4.39) μM
IC50 ([1]; MRSA 7): 2.1 ± 0.2 µM
Minimum Inhibitory Concentration (MIC) ([1]; MRSA 8): (4.64) μM
IC50 ([1]; MRSA 8): 2.1 ± 0.2 µM
Minimum Inhibitory Concentration (MIC) ([1]; MRSA 9): (5.00) μM
IC50 ([1]; MRSA 9): 2.3 ± 0.2 µM
Minimum Inhibitory Concentration (MIC) ([1]; MRSA 10): (5.15) μM
IC50 ([1]; MRSA 10): 2.6 ± 0.2 µM
Minimum Inhibitory Concentration (MIC) ([2]; S. aureus WT (ATCC 25923)): (6.87) μM
IC50 [2, 3]: 2.8 ± 0.9 µM
IC50 [2, 4]: 2.8 ± 0.9 µM
Minimum Inhibitory Concentration (MIC) (Streptococcus pneumoniae; Strep. pneumoniae 14070): (74.1) μM
IC50 (Streptococcus pneumoniae; Strep. pneumoniae 14070): 29 ± 5 µM
Minimum Inhibitory Concentration (MIC) (Streptococcus pneumoniae; Strep. pneumoniae 14112): (66.2) μM
IC50 (Streptococcus pneumoniae; Strep. pneumoniae 14112): 29 ± 3 µM
Minimum Inhibitory Concentration (MIC) (Streptococcus pneumoniae; Strep. pneumoniae 14138): (>200) μM
IC50 (Streptococcus pneumoniae; Strep. pneumoniae 14138): 142 ± 12 µM
Minimum Inhibitory Concentration (MIC) (Streptococcus pneumoniae; Strep. pneumoniae 14144): (>200) μM
IC50 (Streptococcus pneumoniae; Strep. pneumoniae 14144): > 200 µM
Minimum Inhibitory Concentration (MIC) (Streptococcus pneumoniae; Strep. pneumoniae 14148): (81.2) μM
IC50 (Streptococcus pneumoniae; Strep. pneumoniae 14148): 40 ± 4 µM
activity against Streptococcus pneumoniae 14070 strain (Streptococcus pneumoniae; in words): active
activity against Streptococcus pneumoniae strain 14112 (Streptococcus pneumoniae; in words): active
activity against Streptococcus pneumoniae strain 14138 (Streptococcus pneumoniae; in words): had an activity
activity against Streptococcus pneumoniae strain 14144 (Streptococcus pneumoniae; in words): not active
activity against Streptococcus pneumoniae strain 14148 (Streptococcus pneumoniae; in words): active
Minimum Inhibitory Concentration (MIC) (Enterococcus faecalis; Ent. Faecalis 14078): (>200) μM
IC50 (Enterococcus faecalis; Ent. Faecalis 14078): > 200 µM
Minimum Inhibitory Concentration (MIC) (Enterococcus faecalis; Ent. Faecalis 14115): (>200) μM
IC50 (Enterococcus faecalis; Ent. Faecalis 14115): > 200 µM
activity against Enterococcus faecalis (Enterococcus faecalis): No activity
Minimum Inhibitory Concentration (MIC) (Corynebacterium jeikeium): (67.5) μM
IC50 (Corynebacterium jeikeium; read-out: IC50): 14 ± 3 µM
Minimum Inhibitory Concentration (MIC) (Streptococcus pyogenes; Strep. pyogenes 14149): (200) μM
IC50 (Streptococcus pyogenes; Strep. pyogenes 14149): 118 µM
Minimum Inhibitory Concentration (MIC) (Streptococcus pyogenes; Strep. pyogenes 14152): (>200) μM
IC50 (Streptococcus pyogenes; Strep. pyogenes 14152): 44 ± 10 µM
activity against Streptococcus pyogenes strain 14152 (Streptococcus pyogenes): active
Minimum Inhibitory Concentration (MIC) (Streptococcus agalactiae; Strep. agalactiae 14150): (200) μM
IC50 (Streptococcus agalactiae; Strep. agalactiae 14150): 144 ± 2 µM
Minimum Inhibitory Concentration (MIC) (Streptococcus agalactiae; Strep. agalactiae 14151): (>200) μM
IC50 (Streptococcus agalactiae; Strep. agalactiae 14151): 198 ± 3 µM
Minimum Inhibitory Concentration (MIC) (Streptococcus agalactiae; Strep. agalactiae 14153): (>200) μM
IC50 (Streptococcus agalactiae; Strep. agalactiae 14153): 174 ± 3 µM
activity against Streptococcus agalactiae strain 14150 (Streptococcus agalactiae): active
WS-1 (toxicity on normal cells, fibroblast) (WS-1 cell lines): 49 ± 9
IC50 (S. epidermidis; S. epidermidis 14069): 5.3 ± 0.2 µM
Minimum Inhibitory Concentration (MIC) (S. epidermidis; S. epidermidis 14069): (19.9) μM
IC50 (S. epidermidis; S. epidermidis 14085): 4.5 ± 0.3 µM
Minimum Inhibitory Concentration (MIC) (S. epidermidis; S. epidermidis 14085): (23.5) μM
IC50 (S. epidermidis; S. epidermidis 14093): 8.6 ± 0.6 µM
Minimum Inhibitory Concentration (MIC) (S. epidermidis; S. epidermidis 14093): (11.6) μM
IC50 (S. epidermidis; S. epidermidis 14134): 3.7 ± 0.4 µM
Minimum Inhibitory Concentration (MIC) (S. epidermidis; S. epidermidis 14134): (19) μM
IC50 (S. epidermidis; S. epidermidis 14143): 6.7 ± 0.3 µM
Minimum Inhibitory Concentration (MIC) (S. epidermidis; S. epidermidis 14143): (15.2) μM
activity on S. epidermidis compared with ciprofloxacin (S. epidermidis): more active than ciprofloxacin
